Results published in ChEMBL document CHEMBL1129747, “Head group analogs of arachidonylethanolamide, the endogenous cannabinoid ligand” (J Med Chem, 1996).

Columns and labels:
[1] = biological target: Cannabinoid receptor 2 (Mus musculus, UniProt P47936); experiment: Compound was evaluated for its binding affinity for mouse spleen Cannabinoid receptor 2
[2] = biological target: Cannabinoid receptor 1 (Rattus norvegicus, UniProt P20272); experiment: Displacement of [3H]CP-55940 from Cannabinoid receptor 1 of rat forebrain membranes; type: cell membranes, Membrane
Sequence of Cannabinoid receptor 1 (P20272 whole entry): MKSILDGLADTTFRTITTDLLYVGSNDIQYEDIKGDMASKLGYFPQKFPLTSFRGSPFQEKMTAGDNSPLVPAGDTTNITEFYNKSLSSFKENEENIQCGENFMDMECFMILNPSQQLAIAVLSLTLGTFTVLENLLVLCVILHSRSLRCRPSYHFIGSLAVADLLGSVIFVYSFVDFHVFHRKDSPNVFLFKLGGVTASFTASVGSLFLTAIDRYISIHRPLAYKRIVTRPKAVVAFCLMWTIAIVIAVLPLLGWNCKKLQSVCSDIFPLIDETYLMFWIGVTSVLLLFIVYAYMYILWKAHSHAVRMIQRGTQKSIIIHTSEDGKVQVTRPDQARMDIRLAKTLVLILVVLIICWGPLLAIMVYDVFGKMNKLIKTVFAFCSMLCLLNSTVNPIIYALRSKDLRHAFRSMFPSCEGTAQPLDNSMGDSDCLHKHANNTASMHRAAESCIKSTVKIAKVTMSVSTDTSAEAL

Sequence of Cannabinoid receptor 2 (P47936 whole entry): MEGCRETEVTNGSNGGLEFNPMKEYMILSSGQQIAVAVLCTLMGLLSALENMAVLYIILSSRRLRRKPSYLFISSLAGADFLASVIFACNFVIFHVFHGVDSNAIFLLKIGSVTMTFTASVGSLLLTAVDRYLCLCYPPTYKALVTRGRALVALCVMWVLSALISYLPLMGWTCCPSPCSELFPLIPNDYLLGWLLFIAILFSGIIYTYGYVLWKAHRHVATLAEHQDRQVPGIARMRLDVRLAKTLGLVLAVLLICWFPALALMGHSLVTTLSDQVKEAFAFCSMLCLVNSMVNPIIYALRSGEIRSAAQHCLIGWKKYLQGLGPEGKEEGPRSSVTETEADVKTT

SMILES	Ki [1] [µM]	Ki [2] [µM]
CCCCC/C=C\C/C=C\C/C=C\C/C=C\CCCC(=O)Nc1ccccc1O	2.1	1.66
CCCCC/C=C\C/C=C\C/C=C\C/C=C\CCCC(=O)N[C@H]1CCCC[C@@H]1O		> 3
CCCCC/C=C\C/C=C\C/C=C\C/C=C\CCCC(=O)NC(CO)CO		0.363
CCCCC/C=C\C/C=C\C/C=C\C/C=C\CCCC(=O)Nc1cccc(O)c1	3.1	1.56
CCCCC/C=C\C/C=C\C/C=C\C/C=C\CCCC(=S)NCCO	6.3	1.38
CCCCC/C=C\C/C=C\C/C=C\C/C=C\CCCC(=O)NCC(O)CC (stereo not given)		0.203
CCCCC/C=C\C/C=C\C/C=C\C/C=C\CCCC(=O)Nc1ccc(O)cc1	13	1.76
CCCCC/C=C\C/C=C\C/C=C\C/C=C\CCCC(=O)NCc1ccc(O)cc1	11	0.217
CCCCC/C=C\C/C=C\C/C=C\C/C=C\CCCC(=O)NCCO [ANANDAMIDE]	1.93	
CCCCC/C=C\C/C=C\C/C=C\C/C=C\CCCC(=O)N[C@H](C)CO [METHANANDAMIDE]	0.815	
